# Marks after values point to notes of the source that are not given here.
# Key:
# [1] = MTT assay, cell viability; details: male, human, peripheral blood mononuclear cells (PBMCs)
# Protocol: (§1) Blood was collected by venipuncture into heparinized vacutainers (BD Vacutainer Systems, Plymouth, UK), stored at room temperature, protected from light, and processed within 2 h. PBMCs were isolated by density gradient centrifugation (400 × g, 30 min) with separation medium (Histopaque® - 1077). After isolation, PBMCs were stained with Trypan blue and counted using a hemocytometer.
# (§2) The MTT assay is regarded as a sensitive and reliable colorimetric assay to quantify cellular viability, proliferation, and activation. It is based on the ability of mitochondrial nicotinamide adenine dinucleotide phosphate (NADPH)-dependent cellular oxidoreductase enzymes present in viable cells to reduce soluble tetrazolium salt (3-[4,5-dimethylthiazol-2-yl]-2,5 diphenyl tetrazolium bromide) to insoluble, colored formazan compounds [26].
# (§3) The MTT assay was conducted in triplicate in the 96-well plate, with two technical replicates. The seeding density was 6.25 × 10^3 cells per well.
# (§4) After 72 h of incubation, the reagent MTT was added to samples for 3 h at 37 ^∘C. DMSO was added to solubilize the formazan crystals followed by further incubation for 30 and 60 min at 37 ^∘C. The optical density was measured at 570 nm using the multiplate reader Multi-Scan FC (Thermo Fisher Scientific, USA). The cell viability was determined according to (5): (5) [drawing 5]
# PBMCs [2] = test: Alkaline comet assay, tail intensity; type: cell-based, human; details: 3 h
# Protocol: as §1
# The comet assay is a sensitive technique for measuring DNA damage at the level of the individual eukaryotic cell. It is based upon the fact that denatured cleaved DNA fragments, or damaged DNA, migrate out of the cell at a different rate during electrophoresis than undamaged DNA [32]. Damaged DNA creates a “comet tail,” while the undamaged DNA remains within the cell membrane creating the “comet head.” The Comet assay is most commonly run under alkaline conditions to detect single and double-stranded DNA breaks.
# PBMCs were isolated as previously described and then cultivated in PB-MAX™ Karyotyping Medium and incubated for 24 h at 37 ^∘C. […] Positive and negative controls were also set up equally. Treated cells were incubated at 37 ^∘C for 3 h and then centrifuged at 800 rpm (120 × g) for 5 min. The supernatant was removed and the cells were subsequently resuspended.
# In a tube containing 120 µL of 0.7% LMPA, 80 µL of the sample was added for each tested concentration and controls. Prepared samples were applied to slides precoated with a 1% NMPA and covered with coverslips. After gel polymerization, coverslips were removed and slides were immersed in lysis buffer overnight at 4 ^∘C. Afterward, slides were washed with distilled water and placed into the electrophoresis tank with an electrophoresis solution (200 mM Na2EDTA, 10 M NaOH, and distilled water, pH > 13) for 20 min, followed by 20 min of electrophoresis (1 V/cm). After electrophoresis, slides were gently rinsed in the following sequences: phosphate-buffered saline (PBS) for 5 min, 70% (V/V) ethanol for 5 min, and finally 96% (V/V) ethanol for 15 min.
# Prior to the fluorescent microscope analysis (U-MNU2; Olympus BX51, Tokyo, Japan), slides were rehydrated and stained with DAPI (1 µg/mL). DNA damage in treated cells was evaluated using Comet Assay IV software (Instem LSS Ltd., Staffordshire, UK), by measuring tail intensity (TI%), the percent of DNA in the tail of comets. For each concentration, as well as for positive and negative controls, at least 200 comets were analyzed. The Minimum Information for Reporting Comet Assay (MIRCA) protocol was used to report the results.
# PBMCs [3] = test: Cytokinesis block micronucleus cytome (CBMN-cyt) assay; type: cell-based, human; design: Total MNi (mean ± SD) / BN cells with MNi (mean ± SD) / NBUDs (mean ± SD) / NPBs (mean ± SD): unit not given here
# From the text: DNA damage events were scored specifically in once-divided binucleated (BN) cells and included micronuclei (MNi), a biomarker of chromosome breakage and/or whole chromosome loss, nucleoplasmic bridges (NPBs), a biomarker of DNA misrepair and/or telomere end-fusions, and nuclear buds (NBUDs), a biomarker of elimination of amplified DNA and/or DNA repair complexes. Cytostatic and cytotoxic effects were examined by calculating the nuclear division index (NDI) and nuclear division cytotoxicity index (NDCI) based on the proportion of mono-, bi-, and multinucleated cells and necrotic and/or apoptotic cell ratios, respectively.
# Whole blood, 400 µL per each treatment, was cultured in PB-MAX™ Karyotyping Medium for 72 h at 37 ^∘C. […] Untreated cultures were set up as negative controls. Cytochalasin B was added to the final concentration of 4.5 µg/mL to block cytokinesis.
# After the cultivation period, cultures were centrifuged for 10 min at 1000 rpm (188 × g) and subjected to hypotonic treatment with 0.56% KCl and centrifuged immediately after the hypotonic addition. Hypotonic treatment was followed by three fixations in ice-cold glacial acetic acid + ethanol (1:3) fresh fixative. The fixed lymphocyte solution was dropped on coded microscope slides. Air-dried slides were stained in 5% Giemsa for 7 min. […] Frequencies of mononuclear, binuclear, trinuclear, and quadrinuclear cells, as well as apoptotic and necrotic cells, were scored in a total number of at least 500 cells. All genotoxicity and cytotoxicity parameters were recognized according to the criteria given by Fenech.
# HeLa cells = tested on: HeLa cells; design: method as in PMID 19616959; details: cited from earlier work
# LO2 cells = tested on: LO2 cells; design: method as in PMID 26256188; details: cited from earlier work
# [4] = tested on: endothelial (HUVEC) cells; details: cited from earlier work
# Calu-3 cells = tested on: Calu-3 cells; design: method as in PMID 18160169; details: cited from earlier work
# mouse retinal cells = tested on: mouse retinal cells; design: method as in PMID 33803405; details: cited from earlier work
# HCT-116 cancer cells = details: cited from earlier work
# MDA-MB-231 cancer cells = details: cited from earlier work
# human PBMCs = test: MTT assay, cell viability; details: human PBMCs, 72 h, 36.36–109.09 ng/mL
# Protocol: as §1, §2, §3, §4
# [5] = β-CD […] (w/w), 25 mg DMH/mL of water
# Protocol: Phase solubility studies were performed according to the Higuchi and Connors’ method [21]. […] Sample solutions were prepared as described by Hindija et al. [22]. […] Each measurement was run in triplicate.
# Phase solubility studies, where the change of drug solubility corresponds to CD concentration, were conducted to assess the binding characteristics of the drug and CD and to determine the values of stability constant (Ks), complexation efficacy (CE), and utility number (UCD).
# The utility number (UCD) is expressed as: (4) [drawing 4] where mD and mCD are the drug dose and workable amount of CD in mg, respectively, while MWD and MWCD stand for molecular weights of D and CD [22].
# HEK293 cells = tested on: HEK293 cells; design: method as in earlier work; details: cited from earlier work
structure (smiles),measurement,setting,value
"O=c1[nH]cc(F)c(=O)[nH]1 [5-FU, 5-fluorouracil]","viability at 72 h, 100 µg/mL",[1],64.8%
same,Genotoxic effects in alkaline comet assay,PBMCs [2],genotoxic effects were observed
same,Tail intensity (mean ± SD),PBMCs [2]; 5-FU 100 µg/mL,5.93 ± 0.23%
same,BN cells with MNi (mean ± SD),PBMCs [3]; positive control,19 ± 6.56
same,NBUDs (mean ± SD),PBMCs [3]; positive control,3.5 ± 1.92
same,"NDCI, nuclear division cytotoxicity index (mean ± SD)",PBMCs [3]; positive control,1.577 ± 0.01
same,"NDI, nuclear division index (mean ± SD)",PBMCs [3]; positive control,1.612 ± 0.01
same,NPBs (mean ± SD),PBMCs [3]; positive control,1 ± 0.82
same,Total MNi (mean ± SD),PBMCs [3]; positive control,19.25 ± 6.65
"OC[C@H]1O[C@@H]2O[C@H]3[C@H](O)[C@@H](O)[C@@H](O[C@H]4[C@H](O)[C@@H](O)[C@@H](O[C@H]5[C@H](O)[C@@H](O)[C@@H](O[C@H]6[C@H](O)[C@@H](O)[C@@H](O[C@H]7[C@H](O)[C@@H](O)[C@@H](O[C@H]8[C@H](O)[C@@H](O)[C@@H](O[C@H]1[C@H](O)[C@H]2O)O[C@@H]8CO)O[C@@H]7CO)O[C@@H]6CO)O[C@@H]5CO)O[C@@H]4CO)O[C@@H]3CO [β-CD, β-cyclodextrin]","viability at 72 h, 1000 ng/mL",[1],90.3%
same,Tail intensity (mean ± SD),PBMCs [2]; concentration of β-CD 250 ng/mL,3.02 ± 1.45%
same,Tail intensity (mean ± SD),PBMCs [2]; concentration of β-CD 500 ng/mL,3.22 ± 1.09%
same,Tail intensity (mean ± SD),PBMCs [2]; concentration of β-CD 750 ng/mL,3.25 ± 1.02%
same,Tail intensity (mean ± SD),PBMCs [2]; concentration of β-CD 1000 ng/mL,3.42 ± 1.08%
same,Effect on cell viability,HeLa cells,does not affect cell viability
same,Effect on cell viability,LO2 cells,does not affect cell viability
same,Effect on cell viability,[4],does not affect cell viability
same,Effect on cell viability,Calu-3 cells,does not affect cell viability
same,Effect on cell viability,mouse retinal cells,does not affect cell viability
same,Effect on cell viability,HCT-116 cancer cells,does not affect cell viability
same,Effect on cell viability,MDA-MB-231 cancer cells,does not affect cell viability
"CN(C)CCOC(c1ccccc1)c1ccccc1.Cn1c(=O)c2[nH]c(Cl)nc2n(C)c1=O [DMH, 2-benzhydryloxy-N,N-dimethylethanamine; 8-chloro-1,3-dimethyl-7H-purine-2,6-dione]",Difference in cell viability versus negative control (Tukey–Kramer),human PBMCs,no statistically significant differences
same,NBUDs (mean ± SD),PBMCs [3]; DMH 72.73 ng/mL,0.75 ± 0.96^s
same,NPBs (mean ± SD),PBMCs [3]; DMH 72.73 ng/mL,0.25 ± 0.5
same,Total MNi (mean ± SD),"PBMCs [3]; DMH 72.73 ng/mL, BN cells","4.25 ± 0.96^r, s"
same,NBUDs (mean ± SD),PBMCs [3]; DMH 90.91 ng/mL,1.75 ± 1.26^s
same,NPBs (mean ± SD),PBMCs [3]; DMH 90.91 ng/mL,0.25 ± 0.5
same,Total MNi (mean ± SD),"PBMCs [3]; DMH 90.91 ng/mL, BN cells",6.5 ± 1.92^s
same,NBUDs (mean ± SD),PBMCs [3]; DMH 109.09 ng/mL,1 ± 0.82^s
same,NPBs (mean ± SD),PBMCs [3]; DMH 109.09 ng/mL,0.25 ± 0.5
same,Total MNi (mean ± SD),"PBMCs [3]; DMH 109.09 ng/mL, BN cells",6.5 ± 2.38^s
same,"UCD, utility number",[5],1.156
same,Effect on cell viability,HEK293 cells,may slightly affect the viability

# From paper PMC11496845, “Preparation, characterization, and in vitro cytogenotoxic evaluation of a novel dimenhydrinate-β-cyclodextrin inclusion complex” (Biomolecules and Biomedicine, 2024)
